# Reference: patent publication US20030134859A1 (SANKYO COMPANY, LIMITED, priority 2000, published 2003)
# Structures can show the parent of a compound that is named as a salt.
# Tests used:
# [1] = tested on: TNF-α production; assay: Inhibitory activity against cytokine (TNF-α) production in LPS-stimulated RAW264.7 cells; format: cell-based, mouse; details: Mus musculus, RAW264.7, 15 h, 1 μM test compound, LPS 10 ng/mL
# In short: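 Mouse RAW264.7 macrophages (5,000 cells/well) stimulated with 10 ng/mL LPS (final) and treated with test compound at 1 μM final for 15 h at 37 °C. Supernatant mouse TNF-α measured by ELISA; % inhibition = 100−(A−B)/(C−B)×100, using unstimulated and LPS-only controls.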
# [2] = tested on: Rat white adipocytes; assay: Inhibition of the differentiation of adipocytes (Oil Red O); format: cell-based; details: 100 nM test compound, 5 days, Oil Red O ABS550, control = 100%, blank = 0%, Table 3; for activity at 0.1 µM: Rattus norvegicus, Adipocyte, 120 h, read-out: Rate of Differentiation (%)
# In short: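 Rat white preadipocytes, 5,000 cells/well, given differentiation medium with compound at 100 nM final (0.1% DMSO) for 5 days at 37 °C. Lipid stained with Oil Red O, eluted in DMSO, read at 550 nm; differentiation % relative to DMSO control (100%) and blank (0%).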
Compound,inhibition at 1 µM [1] [%],activity at 0.1 µM [2] [%],Rate of Differentiation (%) [2] [%]
"Cc1cnc(NC(=O)c2cc([N+](=O)[O-])ccc2Cl)s1 [Example 4, N-(5-Methylthiazol-2-yl)-(2-chloro-5-nitrophenyl)carboxamide]",18.5,–,–
"CC(C)(C)c1cc(NC(=O)c2cc([N+](=O)[O-])ccc2Cl)cc(C(C)(C)C)c1O [Example 29, N-(3,5-Di-t-butyl-4-hydroxyphenyl)-(2-chloro-5-nitrophenyl)carboxamide]",22.9,–,–
"Cc1ccccc1-c1csc(NC(=O)c2cc([N+](=O)[O-])ccc2Cl)n1 [Example 39, N-[4-(2-Methylphenyl)thiazol-2-yl]-(2-chloro-5-nitrophenyl)carboxamide]",29.8,–,–
"Cc1cccc(-c2csc(NC(=O)c3cc([N+](=O)[O-])ccc3Cl)n2)c1 [Example 40, N-[4-(3-Methylphenyl)thiazol-2-yl)-(2-chloro-5-nitrophenyl)carboxamide]",27.1,–,–
"O=C(Nc1nc(-c2cccc3ccccc23)cs1)c1cc([N+](=O)[O-])ccc1Cl [Example 41, N-[4-(1-Naphthyl)thiazol-2-yl]-(2-chloro-5-nitrophenyl)carboxamide]",30,–,–
"CCc1ccc(-c2csc(NC(=O)c3cc([N+](=O)[O-])ccc3Cl)n2)cc1 [Example 44, N-[4-(4-Ethylphenyl)thiazol-2-yl]-(2-chloro-5-nitrophenyl)carboxamide]",18,–,–
"Cc1ccc(-c2nc(NC(=O)c3cc([N+](=O)[O-])ccc3Cl)sc2C)cc1Cl [Example 46, N-[4-(3-Chloro-4-methylphenyl)-5-methylthiazol-2-yl]-(2-chloro-5-nitrophenyl)carboxamide]",30.7,–,–
Cc1nc(NC(=O)c2cc([N+](=O)[O-])ccc2Cl)sc1C [Example 47],16.7,–,–
"Cc1ccc(NC(=O)c2cc([N+](=O)[O-])ccc2Cl)nc1 [Example 52, N-(5-Methylpyridin-2-yl)-(2-chloro-5-nitrophenyl)carboxamide]",16.2,–,–
"O=C(Nc1ccc2c3c(cccc13)CC2)c1cc([N+](=O)[O-])ccc1Cl [Example 54, N-(Acenaphthen-5-yl)-(2-chloro-5-nitrophenyl)carboxamide]",16.8,–,–
"Nc1ccc(NC(=O)c2cc([N+](=O)[O-])ccc2Cl)cc1 [Example 58, N-(4-Aminophenyl)-(2-chloro-5-nitrophenyl)carboxamide mono-hydrochloride]",–,51.7,–
"O=C(Nc1c(Cl)ncnc1Cl)c1cc([N+](=O)[O-])ccc1Cl [Example 81, N-(4,6-Dichloropyrimidin-5-yl)-(2-chloro-5-nitrophenyl)carboxamide]",32,–,–
"CC(C)(C)OC(=O)Nc1ccc(-c2ccc(NC(=O)c3cc([N+](=O)[O-])ccc3Cl)cc2)cc1 [Example 87, N-[4-[4-(tert-Butoxycarbonylamino)phenyl]phenyl]-(2-chloro-5-nitrophenyl)carboxamide]",–,75.2,–
"O=C(Nc1nc(-c2ccc(F)c(F)c2)cs1)c1cc([N+](=O)[O-])ccc1Cl [Example 111, N-[4-(3,4-Difluorophenyl)thiazol-2-yl]-(2-chloro-5-nitrophenyl)carboxamide]",28.7,–,–
"CCCCCCN(CCCCCC)c1ccc(NC(=O)c2cc([N+](=O)[O-])ccc2Cl)cc1 [Example 138, N-[4-(N,N-di-n-Hexylamino)phenyl]-(2-chloro-5-nitrophenyl)carboxamide]",17.8,–,–
"CC(C)(C)c1cc(C(=O)Nc2ccc(NC(=O)c3cc([N+](=O)[O-])ccc3Cl)cc2)cc(C(C)(C)C)c1O [Example 157, N-[4-[(3,5-di-tert-Butyl-4-hydroxybenzoyl)amino]phenyl]-(2-chloro-5-nitrophenyl)carboxamide]",38.6,–,–
"CCCN(CC)c1ccc(NC(=O)c2cc([N+](=O)[O-])ccc2Cl)cc1 [Example 189, N-[4-(N-Ethyl-N-propylamino)phenyl]-(2-chloro-5-nitrophenyl)carboxamide]",16.3,–,–
"O=C(Nc1cccc(O)c1)c1cc([N+](=O)[O-])ccc1Cl [Example 191, N-(3-Hydroxyphenyl)-(2-chloro-5-nitrophenyl)carboxamide]",–,63.4,–
"CCCCCCNc1ccc(-c2ccc(NC(=O)c3cc([N+](=O)[O-])ccc3Cl)cc2)cc1 [Example 195, N-[4-[4-(N-Hexylamino)phenyl]phenyl]-(2-chloro-5-nitrophenyl)carboxamide]",16.1,36.5,–

Compound,inhibition at 1 µM [1] [%],activity at 0.1 µM [2] [%],Rate of Differentiation (%) [2] [%]
"CCCCCCN(C)c1ccc(-c2ccc(NC(=O)c3cc([N+](=O)[O-])ccc3Cl)cc2)cc1 [Example 196, N-[4-[4-(N-Hexyl-N-methylamino)phenyl]phenyl]-(2-chloro-5-nitrophenyl)carboxamide]",15.3,53.4,–
"CCCCCCN(CC)c1ccc(-c2ccc(NC(=O)c3cc([N+](=O)[O-])ccc3Cl)cc2)cc1 [Example 197, N-[4-[4-(N-Ethyl-N-hexylamino)phenyl]phenyl]-(2-chloro-5-nitrophenyl)carboxamide]",21.6,45.7,–
"CCCCCCCCNc1ccc(-c2ccc(NC(=O)c3cc([N+](=O)[O-])ccc3Cl)cc2)cc1 [Example 219, N-[4-[4-(N-Octylamino)phenyl]phenyl]-(2-chloro-5-nitrophenyl)carboxamide]",21.7,36.6,–
"CCCCCCCCN(CCCCCC)c1ccc(-c2ccc(NC(=O)c3cc([N+](=O)[O-])ccc3Cl)cc2)cc1 [Example 220, N-[4-[4-(N-Hexyl-N-octylamino)phenyl]phenyl]-(2-chloro-5-nitrophenyl)carboxamide mono-hydrochloride]",16.3,38.4,–
"CCCCCCCCN(CCCC)c1ccc(-c2ccc(NC(=O)c3cc([N+](=O)[O-])ccc3Cl)cc2)cc1 [Example 222, N-[4-[4-(N-Butyl-N-octylamino)phenyl]phenyl]-(2-chloro-5-nitrophenyl)carboxamide]",–,48.6,–
"CCCCCCCCN(CCCC)c1ccc(-c2ccc(NC(=O)c3cc([N+](=O)[O-])ccc3Cl)cc2)cc1.Cl [Example 223, N-[4-[4-(N-Butyl-N-octylamino)phenyl]phenyl]-(2-chloro-5-nitrophenyl)carboxamide mono-hydrochloride]",28.2,–,35.0
"CCCCCCCCN(CCC)c1ccc(-c2ccc(NC(=O)c3cc([N+](=O)[O-])ccc3Cl)cc2)cc1 [Example 224, N-[4-[4-(N-Octyl-N-propylamino)phenyl]phenyl]-(2-chloro-5-nitrophenyl)carboxamide]",22.4,40.9,–
"CCCCCCCCN(CC)c1ccc(-c2ccc(NC(=O)c3cc([N+](=O)[O-])ccc3Cl)cc2)cc1 [Example 225, N-[4-[4-(N-Ethyl-N-octylamino)phenyl]phenyl]-(2-chloro-5-nitrophenyl)carboxamide]",–,45.9,–
"O=C(Nc1ccc(N2CCN(C(=O)c3ccncc3)CC2)cc1)c1cc([N+](=O)[O-])ccc1Cl [Example 228, N-[4-[4-(Pyridin-4-ylcarbonyl)piperazin-1-yl]phenyl]-(2-chloro-5-nitrophenyl)carboxamide]",–,17.5,–
"O=C(Nc1ccc(CCO)cc1)c1cc([N+](=O)[O-])ccc1Cl [Example 230, N-[4-(2-Hydroxyethyl)phenyl]-(2-chloro-5-nitrophenyl)carboxamide]",–,48.9,–
"O=C(Nc1ccc(-n2ccnc2)cc1)c1cccc(NC(=O)c2cc([N+](=O)[O-])ccc2Cl)c1 [Example 231, N-[[3-[4-(Imidazol-1-yl)phenyl]aminocarbonyl]phenyl]-(2-chloro-5-nitrophenyl)carboxamide]",–,20.1,–
"CCN(c1ccc(NS(=O)(=O)c2ccc(NC(=O)c3cc([N+](=O)[O-])ccc3Cl)cc2)cc1)C(C)C [Example 232, N-[[4-[4-(N-Ethyl-N-isopropylamino)phenyl]aminosulfonyl]phenyl]-(2-chloro-5-nitrophenyl)carboxamide]",–,45.4,–
"Nc1nc(-c2cccc(NC(=O)c3cc([N+](=O)[O-])ccc3Cl)c2)cs1 [Example 233, N-[3-(2-Amiothiazol-4-yl)phenyl]-(2-chloro-5-nitrophenyl)carboxamide]",–,47.4,–
"CC(O)c1cccc(NC(=O)c2cc([N+](=O)[O-])ccc2Cl)c1 (stereo not drawn) [Example 239, N-[3-(1-Hydroxyethyl)phenyl]-(2-chloro-5-nitrophenyl)carboxamide]",–,52.8,–
"O=C(Nc1ccc(NC(=S)Nc2cccnc2)cc1)c1cc([N+](=O)[O-])ccc1Cl [Example 257, N-[4-[(Pyridin-3-yl)aminothiocarbonylamino]phenyl]-(2-chloro-5-nitrophenyl)carboxamide]",–,59.8,–
"O=C(Nc1ccc(-c2ccc(NC(=S)Nc3ccncc3)cc2)cc1)c1cc([N+](=O)[O-])ccc1Cl [Example 258, N-[4-[4-[(Pyridin-4-yl)aminothiocarbonylamino]phenyl]phenyl]-(2-chloro-5-nitrophenyl)carboxamide]",–,39,–
"O=C(Nc1ccc(NC(=S)Nc2ccncc2)cc1)c1cc([N+](=O)[O-])ccc1Cl [Example 259, N-[4-[(Pyridin-4-yl)aminothiocarbonylamino]phenyl]-(2-chloro-5-nitrophenyl)carboxamide]",–,56.5,–
"NCCc1ccc(NC(=O)c2cc([N+](=O)[O-])ccc2Cl)cc1 [Example 267, N-[4-(2-Aminoethyl)phenyl]-(2-chloro-5-nitrophenyl)carboxamide]",–,47.3,–
N-(Ethoxyphenyl)-(2-chloro-5-nitrophenyl)carboxamide [Example 229],–,–,62.7
